These are literature values, as cited in US20250249020A1, “COLLOIDALLY STABLE HEME-ALBUMIN COMPLEXES AND METHODS OF MAKING AND USING THEREOF” (Ohio State Innovation Foundation, priority 2022, published 2025).

The target of the data set is Hpx. The settings on record: heme binding, background.

Consider `C=CC1=C(C)c2cc3[n-]c(cc4[n-]c(cc5nc(cc1n2)C(C)=C5C=C)c(C)c4CCC(=O)O)c(CCC(=O)O)c3C.[Fe+2]` [heme], for which the dissociation constant Kd (usually the free concentration of one partner at which half of the binding sites on the other are occupied at equilibrium, for simple one-to-one binding) is approximately 10 nM.
